From patent publication US20260262643A1, “HERBICIDAL BENZOXAZINES” (FMC CORPORATION, priority 2022, published 2026)

How the values were obtained:
corn = assay: Test A postemergence; format: in vivo, Zea mays
Procedure, shortened: (§1)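 Plants were grown in loam and sand and treated preemergence or postemergence (one- to two-leaf stage, 2–10 cm) with compound in solvent plus surfactant. Response was scored against untreated controls after 10 greenhouse days, where 0 means no effect and 100 complete control.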

rice = assay: Test B flooded paddy test; format: in vivo, Oryza sativa; conditions: 250 g ai/ha, Flood, 13 days, 0 to 100 scale (0 no effect, 100 complete control)
Procedure, shortened: (§2)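 2-leaf stage; pots flooded 3 cm over soil; compound dosed into paddy water; depth kept constant. Greenhouse, 13 d. Visual rating vs controls, 0 (no effect)–100 (complete control). Dash = no result.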

sedge, umbrella = assay: Test B flooded paddy test; format: in vivo, Cyperus difformis; conditions: 250 g ai/ha, Flood, 13 days, 0 to 100 scale (0 no effect, 100 complete control)
Procedure, shortened: as §2

Pigweed, Redroot [1] = assay: Test A preemergence; format: in vivo, Amaranthus retroflexus
Procedure, shortened: as §1

ragweed [2] = assay: Test A preemergence; format: in vivo, Ambrosia artemisiifolia
Procedure, shortened: as §1

foxtail, giant [3] = assay: Test A preemergence; format: in vivo, Setaria faberi
Procedure, shortened: as §1

ryegrass, Italian [4] = assay: Test A preemergence; format: in vivo, Lolium multiflorum
Procedure, shortened: as §1

barnyardgrass [5] = assay: Test A preemergence; format: in vivo, Echinochloa crusgalli
Procedure, shortened: as §1

ryegrass, Italian [6] = assay: Test A postemergence; format: in vivo, Lolium multiflorum
Procedure, shortened: as §1

barnyardgrass [7] = assay: Test A postemergence; format: in vivo, Echinochloa crusgalli
Procedure, shortened: as §1

blackgrass = assay: Test A postemergence; format: in vivo, Alopecurus myosuroides
Procedure, shortened: as §1

Pigweed, Redroot [8] = assay: Test A postemergence; format: in vivo, Amaranthus retroflexus
Source text: Seeds of plant species selected from barnyardgrass (Echinochloa crusgalli), blackgrass (Alopecurus myosuroides), corn (Zea mays), foxtail, giant (giant foxtail, Setaria faberi), goosegrass (Eleusine indica), kochia (Bassia scoparia), oat, wild (wild oat, Avena fatua), pigweed, palmer (palmer amaranth, palmer pigweed, Amaranthus palmeri), Pigweed, Redroot (redroot pigweed, Amaranthus retroflexus), ragweed (common ragweed, Ambrosia artemisiifolia), ryegrass, Italian (italian ryegrass, Lolium multiflorum), soybean (Glycine max), and wheat (Triticum aestivum) were planted into a blend of loam soil and sand and treated preemergence with a directed soil spray using test chemicals formulated in a non-phytotoxic solvent mixture which included a surfactant. At the same time, plants selected from these crops and weed species and also galium (catchweed bedstraw, Galium aparine) and horseweed (Erigeron canadensis) were planted in pots containing the same blend of loam soil and sand and treated with postemergence applications of test chemicals formulated in the same manner. Plants ranged in height from 2 to 10 cm and were in the one- to two-leaf stage for the postemergence treatment. Treated plants and untreated controls were maintained in a greenhouse for 10 days, after which time all treated plants were compared to untreated controls and visually evaluated for injury. Plant response ratings, summarized in Table A, are based on a 0 to 100 scale where 0 is no effect and 100 is complete control. A dash (-) response means no test result.

galium = assay: Test A postemergence; format: in vivo, Galium aparine
Procedure, shortened: as §1

wheat = assay: Test A postemergence; format: in vivo, Triticum aestivum
Procedure, shortened: as §1

kochia [9] = assay: Test A preemergence; format: in vivo, Bassia scoparia
Procedure, shortened: as §1

ducksalad = assay: Test B flooded paddy test; format: in vivo, Heteranthera limosa; conditions: 250 g ai/ha, Flood, 13 days, 0 to 100 scale (0 no effect, 100 complete control)
Procedure, shortened: as §2

foxtail, giant [10] = assay: Test A postemergence; format: in vivo, Setaria faberi
Procedure, shortened: as §1

kochia [11] = assay: Test A postemergence; format: in vivo, Bassia scoparia
Procedure, shortened: as §1

barnyardgrass [12] = assay: Test B flooded paddy test; format: in vivo, Echinochloa crus-galli; conditions: 250 g ai/ha, Flood, 13 days, 0 to 100 scale (0 no effect, 100 complete control)
Procedure, shortened: as §2

ragweed [13] = assay: Test A postemergence; format: in vivo, Ambrosia artemisiifolia
Procedure, shortened: as §1

[14] = 125 g ai/ha, postemergence, 10 days, visual injury, 0 to 100 scale (0 no effect, 100 complete control)
[15] = 500 g ai/ha, Postemergence, 0 to 100 scale
[16] = 125 g ai/ha, visual injury after 10 days, 0 to 100 scale, 0 is no effect, 100 is complete control
[17] = 500 g ai/ha, 0 to 100 scale (0 no effect, 100 complete control), 10 days

Row | Structure (SMILES) | Plant response rating, Corn (corn; [14]) | Plant response rating, Corn (corn; [15]) | Plant response rating, Rice (rice) | Plant response rating, Sedge, Umbrella (sedge, umbrella) | Plant response rating, Pigweed, Redroot (Pigweed, Redroot [1]; [16]) | Plant response rating, Pigweed, Redroot (Pigweed, Redroot [1]; [17]) | Plant response rating, Ragweed (ragweed [2]; [16]) | Plant response rating, Ragweed (ragweed [2]; [17]) | Plant response rating, Foxtail, Giant (foxtail, giant [3]; [16]) | Plant response rating, Foxtail, Giant (foxtail, giant [3]; [17]) | Plant response rating, Ryegrass, Italian (ryegrass, Italian [4]; [16]) | Plant response rating, Ryegrass, Italian (ryegrass, Italian [4]; [17]) | Plant response rating, Barnyardgrass (barnyardgrass [5]; [16]) | Plant response rating, Barnyardgrass (barnyardgrass [5]; [17]) | Plant response rating, Ryegrass, Italian (ryegrass, Italian [6]; [14]) | Plant response rating, Ryegrass, Italian (ryegrass, Italian [6]; [15]) | Plant response rating, Barnyardgrass (barnyardgrass [7]; [14]) | Plant response rating, Barnyardgrass (barnyardgrass [7]; [15]) | Plant response rating, Blackgrass (blackgrass; [14]) | Plant response rating, Blackgrass (blackgrass; [15]) | also measured
1 | CCC1CN(C(=O)c2cncc(-n3cncn3)c2)c2cccc(Cl)c2O1 (racemic) [Compound 6] | 0 | 0 | 0 | 0 | 0 | 20 | 0 | 30 | 0 | 60 | 20 | 50 | 0 | 0 | 50 | 40 | 0 | 10 | 0 | 0 | Plant response rating, Pigweed, Redroot (Pigweed, Redroot [8]; [14]): 0; Plant response rating, Pigweed, Redroot (Pigweed, Redroot [8]; [15]): 30; Plant response rating, Galium (galium; [14]): 0; Plant response rating, Galium (galium; [15]): 30; Plant response rating, Wheat (wheat; [14]): 0; Plant response rating, Wheat (wheat; [15]): 0; Plant response rating, Kochia (kochia [9]; [16]): 0; Plant response rating, Kochia (kochia [9]; [17]): 0; Plant response rating, Ducksalad (ducksalad): 0; Plant response rating, Foxtail, Giant (foxtail, giant [10]; [14]): 0; Plant response rating, Foxtail, Giant (foxtail, giant [10]; [15]): 10; Plant response rating, Kochia (kochia [11]; [14]): 0; Plant response rating, Kochia (kochia [11]; [15]): 0; Plant response rating, Barnyardgrass (barnyardgrass [12]): 0; Plant response rating, Ragweed (ragweed [13]; [14]): 0; Plant response rating, Ragweed (ragweed [13]; [15]): 0
2 | CCC1CN(C(=O)c2cccc(-n3cncn3)c2)c2cccc(Cl)c2O1 (racemic) [Compound 7] | 0 | 0 | 0 | 0 | 0 | 40 | 0 | 0 | 10 | 80 | 50 | 50 | 0 | 0 | 0 | 0 | 10 | 20 | 0 | 30 | Plant response rating, Pigweed, Redroot (Pigweed, Redroot [8]; [14]): 0; Plant response rating, Pigweed, Redroot (Pigweed, Redroot [8]; [15]): 30; Plant response rating, Galium (galium; [14]): 0; Plant response rating, Galium (galium; [15]): 60; Plant response rating, Wheat (wheat; [14]): 30; Plant response rating, Wheat (wheat; [15]): 40; Plant response rating, Kochia (kochia [9]; [16]): 40; Plant response rating, Kochia (kochia [9]; [17]): 80; Plant response rating, Ducksalad (ducksalad): 0; Plant response rating, Foxtail, Giant (foxtail, giant [10]; [14]): 10; Plant response rating, Foxtail, Giant (foxtail, giant [10]; [15]): 20; Plant response rating, Kochia (kochia [11]; [14]): 0; Plant response rating, Kochia (kochia [11]; [15]): 20; Plant response rating, Barnyardgrass (barnyardgrass [12]): 0; Plant response rating, Ragweed (ragweed [13]; [14]): 0; Plant response rating, Ragweed (ragweed [13]; [15]): 0
